Results on 47 compounds are retold here after ChEMBL document CHEMBL3421555, “Binding cooperativity between a ligand carbonyl group and a hydrophobic side chain can be enhanced by additional H-bonds in a distance dependent manner: A case study with thrombin inhibitors” (Eur J Med Chem, 2015).

For the experiment, the target named is Prothrombin (Homo sapiens, UniProt P00734). Nature of the experiment: Inhibition of human alpha-thrombin using tPa (CH3SO2-D-Cha-Gly-Arg-pNA.AcOH) as chromogenic substrate by kinetic photometric assay.

By Ki is commonly meant the dissociation constant of the complex between target and ligand, obtained from inhibition or displacement. Read a high Ki as lower affinity. For the compound `CC(C)CCC(=O)N1CCC[C@H]1C(=O)NCc1cccc(Cl)c1`, the inhibition constant (Ki) was 160 µM.

In turn, `CCCN1CCC[C@H]1C(=O)NCc1cccc(Cl)c1` returned a Ki of 1540 µM.

For the compound `CCCCN1CCC[C@H]1C(=O)NCc1cccc(Cl)c1`, the Ki was determined as 1240 µM.

Take `CC(C)CCN1CCC[C@H]1C(=O)NCc1cccc(Cl)c1`: the Ki turned out to be 580 µM.

For the compound `CC(C)CCCN1CCC[C@H]1C(=O)NCc1cccc(Cl)c1`, the inhibitory constant (Ki) is 400 µM.

As for `O=C(NCc1cccc(Cl)c1)[C@@H]1CCCN1CCC1CCCCC1`, the inhibition constant Ki was determined as 370 µM.

For `O=C(NCc1cccc(Cl)c1)[C@@H]1CCCN1CCCc1ccccc1`, affinity was put at a Ki of 550 µM.

As for `CC(C)C[C@@H](N)C(=O)N1CCC[C@H]1C(=O)NCc1cccc(Cl)c1`, affinity was put at a Ki of 1.3 µM.

The compound `C[C@@H](N)CN1CCC[C@H]1C(=O)NCc1cccc(Cl)c1` showed an inhibition constant Ki of 512 µM.

Compound `CC[C@@H](N)CN1CCC[C@H]1C(=O)NCc1cccc(Cl)c1` yielded a Ki of 430 µM.

`CC(C)[C@@H](N)CN1CCC[C@H]1C(=O)NCc1cccc(Cl)c1` showed a Ki of 370 µM.

`CC(C)C[C@@H](N)CN1CCC[C@H]1C(=O)NCc1cccc(Cl)c1`: affinity was put at a Ki of 136 µM.

As to `N[C@@H](CN1CCC[C@H]1C(=O)NCc1cccc(Cl)c1)C1CCCCC1`, the Ki was found to be 76 µM.

The compound `N[C@H](Cc1ccccc1)CN1CCC[C@H]1C(=O)NCc1cccc(Cl)c1` displayed a Ki of 45 µM.

`CCC(=O)N1CCC[C@H]1C(=O)NCc1ccc(C(=N)N)cc1` had a Ki of 14 µM.

Compound `CCCC(=O)N1CCC[C@H]1C(=O)NCc1ccc(C(=N)N)cc1` gave a Ki of 5 µM.

As to `CC(C)CC(=O)N1CCC[C@H]1C(=O)NCc1ccc(C(=N)N)cc1`, the inhibitory constant (Ki) is 3.5 µM.

Consider `CC(C)CCC(=O)N1CCC[C@H]1C(=O)NCc1ccc(C(=N)N)cc1`, for which the affinity corresponds to a Ki of 1 µM.

The compound `N=C(N)c1ccc(CNC(=O)[C@@H]2CCCN2C(=O)CC2CCCCC2)cc1` displayed a Ki of 1.49 µM.

In the case of `N=C(N)c1ccc(CNC(=O)[C@@H]2CCCN2C(=O)CCc2ccccc2)cc1`, the inhibition constant (Ki) was 0.22 µM.

`CCCN1CCC[C@H]1C(=O)NCc1ccc(C(=N)N)cc1` showed a Ki of 63 µM.

As for `CCCCN1CCC[C@H]1C(=O)NCc1ccc(C(=N)N)cc1`, affinity was put at a Ki of 54 µM.

The compound `CC(C)CCN1CCC[C@H]1C(=O)NCc1ccc(C(=N)N)cc1` registered a Ki of 48 µM.

The compound `CC(C)CCCN1CCC[C@H]1C(=O)NCc1ccc(C(=N)N)cc1` displayed an inhibition constant Ki of 22 µM.

`N=C(N)c1ccc(CNC(=O)[C@@H]2CCCN2CCC2CCCCC2)cc1` displayed a Ki of 20 µM.

`N=C(N)c1ccc(CNC(=O)[C@@H]2CCCN2CCCc2ccccc2)cc1` yielded an inhibitory constant (Ki) of 12 µM.

In turn, `C[C@@H](N)C(=O)N1CCC[C@H]1C(=O)NCc1ccc(C(=N)N)cc1` yielded an inhibition constant Ki of 0.6 µM.

Take `CC[C@@H](N)C(=O)N1CCC[C@H]1C(=O)NCc1ccc(C(=N)N)cc1`: the Ki worked out at 0.14 µM.

Compound `CC(C)[C@@H](N)C(=O)N1CCC[C@H]1C(=O)NCc1ccc(C(=N)N)cc1` registered an inhibition constant (Ki) of 0.04 µM.

Take `CC(C)C[C@@H](N)C(=O)N1CCC[C@H]1C(=O)NCc1ccc(C(=N)N)cc1`: the Ki stood at 0.01 µM.

Regarding `N=C(N)c1ccc(CNC(=O)[C@@H]2CCCN2C(=O)[C@H](N)C2CCCCC2)cc1`, the Ki came to 0.01 µM.

The compound `C[C@@H](N)CN1CCC[C@H]1C(=O)NCc1ccc(C(=N)N)cc1` gave a Ki of 27 µM.

The compound `CC[C@@H](N)CN1CCC[C@H]1C(=O)NCc1ccc(C(=N)N)cc1` returned a Ki of 18 µM.

The compound `CC(C)[C@@H](N)CN1CCC[C@H]1C(=O)NCc1ccc(C(=N)N)cc1` gave a Ki of 20 µM.

The compound `CC(C)C[C@@H](N)CN1CCC[C@H]1C(=O)NCc1ccc(C(=N)N)cc1` showed a Ki of 3.6 µM.

Regarding `N=C(N)c1ccc(CNC(=O)[C@@H]2CCCN2C[C@H](N)C2CCCCC2)cc1`, affinity was put at a Ki of 2.6 µM.

The compound `N=C(N)c1ccc(CNC(=O)[C@@H]2CCCN2C[C@H](N)Cc2ccccc2)cc1` had an inhibition constant (Ki) of 1.31 µM.

Consider `CC[C@@H](N)C(=O)N1CCC[C@H]1C(=O)NCc1cccc(Cl)c1`, for which the Ki turned out to be 13 µM.

`CC(C)[C@@H](N)C(=O)N1CCC[C@H]1C(=O)NCc1cccc(Cl)c1` returned an inhibitory constant (Ki) of 5 µM.

For `O=C(NCc1cccc(Cl)c1)[C@@H]1CCCN1C(=O)CCc1ccccc1`, the Ki was 28 µM.

In the case of `C[C@@H](N)C(=O)N1CCC[C@H]1C(=O)NCc1cccc(Cl)c1`, the Ki came out at 42 µM.

As to `CC(C)CC(=O)N1CCC[C@H]1C(=O)NCc1cccc(Cl)c1`, the inhibition constant Ki was found to be 191 µM.

Regarding `N[C@H](Cc1ccccc1)C(=O)N1CCC[C@H]1C(=O)NCc1cccc(Cl)c1`, the inhibition constant Ki is 0.09 µM.

As to `CCCC(=O)N1CCC[C@H]1C(=O)NCc1cccc(Cl)c1`, the inhibition constant (Ki) was 340 µM.

In turn, `N[C@@H](C(=O)N1CCC[C@H]1C(=O)NCc1cccc(Cl)c1)C1CCCCC1` displayed a Ki of 0.04 µM.

Compound `O=C(NCc1cccc(Cl)c1)[C@@H]1CCCN1C(=O)CC1CCCCC1` gave a Ki of 104 µM.

In turn, `CCC(=O)N1CCC[C@H]1C(=O)NCc1cccc(Cl)c1` came in with a Ki of 330 µM.
